Measured values reported in publication PMC6680510, “Benzotriazine Di-Oxide Prodrugs for Exploiting Hypoxia and Low Extracellular pH in Tumors” (Molecules, 2019).
Read-outs that look alike come from different tables or passages of the source.

Experiments:
SiHa cells [1] = test: IC50 assay (inhibition of proliferation, 4 h exposure, SRB); conditions: SiHa; for IC50: Homo sapiens, 4 h
Protocol: Cells were seeded in 96-well plates (SiHa or FaDu 1500 cells/well, UT-SCC-74B 800 cells/well) in 100 μL. After incubation for 2 h, the drugs were added in 50 μL of the same titrated medium at 3× the final concentration to duplicate the wells. After a further 4 h the plates were checked for drug precipitation using a phase contrast microscope, then drugs were removed by aspirating and washing with the standard (pH 7.4) medium, then aspirating again and adding 150 μL of the medium. Cultures were then grown for 5 days before staining with sulphorhodamine B and measuring absorbance, with the estimation of IC50 values using 4-parameter logistic regression, as previously carried out.
The medium and plasticware was equilibrated in the chamber for 3 days prior to use. In the anoxia experiments, FaDu cells were plated in poly-L-lysine coated plates (Corning Cat # 356461) to improve attachment.
Cells were subsequently grown under standard cell culture conditions (oxia, pHe 7.4) for 5 days before staining with sulforhodamine B (SRB). […] (B) SN30000 (2). (C) BTO acid 4a. Values are means and errors are ranges for duplicate cultures in a single experiment. Fitted curves are 4-parameter logistic regressions. PCR = pH cytotoxicity ratio. ACR = anoxia cytotoxicity ratio. TMR = tumor microenvironment ratio.

FaDu cells = test: as above; format: cell-based; conditions: for IC50: Homo sapiens, 4 h
Protocol: (§1) Cells were seeded in 96-well plates (SiHa or FaDu 1500 cells/well, UT-SCC-74B 800 cells/well) in 100 μL. After incubation for 2 h, the drugs were added in 50 μL of the same titrated medium at 3× the final concentration to duplicate the wells. After a further 4 h the plates were checked for drug precipitation using a phase contrast microscope, then drugs were removed by aspirating and washing with the standard (pH 7.4) medium, then aspirating again and adding 150 μL of the medium. Cultures were then grown for 5 days before staining with sulphorhodamine B and measuring absorbance, with the estimation of IC50 values using 4-parameter logistic regression, as previously carried out [85].

SiHa and FaDu cells = test: IC50 assay, summary statements over both cell lines; format: cell-based; conditions: SiHa and FaDu, anoxia, pHe 6.5; read-out: Potency (IC50) under anoxia at pHe 6.5
Protocol: as §1

[2] = cited from earlier work
[3] = One-electron reduction potentials by pulse radiolysis; format: physicochemical; conditions: pH 7.0, equilibrium with redox indicator shown in square brackets
Protocol: One-electron reduction potentials (E^0′) were determined from the redox equilibria with methylviologen, MV^2+, (E^0′ = […], [34]), dimethyldiquat, V21^2+, (E^0′ = […], [35]), or triquat, TQ^2+, (E^0′ = −548 ± 7 mV [34]). […] Substituting the 3-alkanoic sidechain with the 3-aminoalkanoic sidechain on the BTO 1,4-dioxide lowers the E^0′, as does the addition of the cyclopentane ring. The combined effect is seen for 10a, where the E^0′ value is −565 mV, which is expected to be too low for significant bioreduction under hypoxia.
Time-resolved optical absorption and kinetic studies were carried out using the University of Auckland’s 4 MeV linear accelerator, which has been previously described. The one-electron reduction potentials of the compounds (A) and couple E^0′(A/A^−), versus normal hydrogen electrode, were determined at pH 7.0 (2.5 mM phosphate) by establishing redox equilibria within 50 μs between three mixtures of one-electron reduced A and the viologen reference compounds, MV^2+, TQ^2+ and V21^2+. The determined equilibrium constants were used to calculate the ΔE values using the Nernst equation, correcting for ionic strength effects, as described in the literature.

SiHa cells [4] = test: Metabolism and uptake of ester 4b in anoxic single cell suspensions; format: in vitro ADME; conditions: anoxic SiHa suspensions after addition of 4b (150 μM)
Source text: If the anionic sidechain of the BTO acids results in low intracellular concentrations, with reductive metabolism occurring largely at the cell surface, the corresponding esters would be expected to provide improved delivery to the intracellular compartment (consistent with their higher cytotoxic potencies, as noted in Section 2.5). To test this, we compared the metabolism of ester 4b (Figure 7A) with its corresponding acid 4a (Figure 7B) by monitoring extracellular concentrations in anoxic SiHa suspensions. The rates of metabolism of both compounds were unaffected by pHe, consistent with the results for 4a in Figure 5B. The ester was metabolized more rapidly than the acid, with only a trace of acid 4a detected transiently as an extracellular metabolite (Figure 7A). The major metabolites were the less polar 1-oxide, 15a, and the 1-oxide of the ester, 16a. In separate experiments with higher initial concentrations of 4b, 15a was again the main extracellular metabolite (Figure 7C, left). […] Compound 4b itself was not detected in the intracellular samples, presumably reflecting a lack of retention in cells and the very low intracellular volume, which will compromise analytical sensitivity (only 2 × 10^6 cells were collected for each analysis in this experiment).
Figure 7 Metabolism of BTO ester 4b and the corresponding acid 4a by anoxic SiHa single cell suspensions (2 × 10^6 cells/mL). (A) Extracellular concentrations following the addition of 4b (50 μM). (B) Extracellular concentrations following the addition of 4a (50 μM). (C) Extracellular (left) and intracellular (right) concentrations following the addition of 4b (150 μM). Values are means and errors are SEM for 3 replicate cultures.

[5] = Solubility in AlphaMEM + 5% FBS, pH 7.4; conditions: culture medium (AlphaMEM + 5% FBS), pH 7.4, plasma or biological fluid, thermodynamic from solid
[6] = read-out: Anoxic IC50, SiHa, pHe 6.5, 4 h, anoxic
[7] = read-out: Anoxic IC50, SiHa, pHe 7.4, 4 h, anoxic
[8] = read-out: Oxic IC50, SiHa, pHe 6.5, 4 h, oxic
[9] = read-out: Oxic IC50, SiHa, pHe 7.4, 4 h, oxic
[10] = pHe 6.5, 4 h, anoxic, read-out: Anoxic IC50
[11] = pHe 6.5, 4 h, oxic, read-out: Oxic IC50
[12] = pHe 7.4, 4 h, anoxic, read-out: Anoxic IC50
[13] = pHe 7.4, 4 h, oxic, read-out: Oxic IC50

Compound	IC50 (SiHa cells [1]; [6])	IC50 (SiHa cells [1]; [7])	IC50 (SiHa cells [1]; [8])	IC50 (SiHa cells [1]; [9])	TMR (overall TME ratio = oxic IC50 pHe 7.4/anoxic IC50 pHe 6.5) (SiHa cells [1])	PCR Anoxic (IC50 at pHe 7.4/IC50 at pHe 6.5) (SiHa cells [1])	PCR oxic (IC50 at pHe 7.4/IC50 at pHe 6.5) (SiHa cells [1])	TMR (oxic IC50 pHe 7.4/anoxic IC50 pHe 6.5) (FaDu cells)	IC50 (FaDu cells; [10])	IC50 (FaDu cells; [11])	IC50 (FaDu cells; [12])	IC50 (FaDu cells; [13])	PCR Anoxic (IC50 at pHe 7.4/IC50 at pHe 6.5) (FaDu cells; anoxic)	PCR oxic (IC50 at pHe 7.4/IC50 at pHe 6.5) (FaDu cells; oxic)	ACR (oxic IC50/anoxic IC50) (FaDu cells; pHe 6.5)	ACR (oxic IC50/anoxic IC50) (FaDu cells; pHe 7.4)	melting point	also measured
Nc1n[n+]([O-])c2ccccc2[n+]1[O-] [Compound 3, tirapazamine, reference compound]	2.9 ± 0.38 µM	2.81 ± 0.3 µM	91 ± 21 µM	162 ± 8 µM	56 ± 8	0.97 ± 0.16	1.77 ± 0.42	26.2 ± 5.9	6.96 ± 1.38 µM	127 ± 14 µM	5.9 ± 0.48 µM	182 ± 20 µM	0.85 ± 0.18	1.43 ± 0.22	18.3 ± 4.1	30.9 ± 4.2		IC50 (SiHa and FaDu cells): 2.9 to 8.6 µM; E^0′ one-electron reduction potential ([2]; pulse radiolysis, redox indicator MV^2+): −456 ± 8 [MV^2+] ^h mV
COC(=O)CCc1n[n+]([O-])c2ccccc2[n+]1[O-] [Compound 4b, 3-(3-Methoxy-3-oxopropyl)benzo[e][1,2,4]triazine 1,4-Dioxide]	1.8 ± 0.46 µM	1.4 ± 0.1 µM	26.3 ± 7.1 µM	34.4 ± 3.5 µM	19.1 ± 5.3	0.78 ± 0.21	1.31 ± 0.38	42.3 ± 2.6	3.3 ± 0.11 µM	98 ± 12 µM	3.2 ± 0.38 µM	140 ± 7 µM	0.97 ± 0.12	1.43 ± 0.19	29.6 ± 3.8	43.6 ± 5.7	89 to 91 °C	E^0′ one-electron reduction potential [3]: −363 ± 7 [MV^2+] mV; ACR (anoxic cytotoxicity ratio = oxic IC50/anoxic IC50) (SiHa cells [1]; pHe 6.5): 14.5 ± 5.4; ACR (anoxic cytotoxicity ratio = oxic IC50/anoxic IC50) (SiHa cells [1]; pHe 7.4): 24.6 ± 3.1; Detection in intracellular samples (SiHa cells [4]): not detected; solubility [5]: 17.7 mM
O=C(O)CCc1nc2ccccc2[n+]([O-])n1 [Compound 15a, 3-(2-Carboxyethyl)benzo[e][1,2,4]triazine 1-Oxide]																	152 to 154 °C (dec.)	Intracellular concentration, fold lower than that of acid 4a (SiHa cells [4]): approximately 10 fold
c1cc[n+]2c(c1)-c1cccc[n+]1CCC2 [triquat, 7,8-dihydrodipyrido-[1,2-a:2′,1′-c][1,4]diazepinedium]																		E^0′ of redox indicator ([2]; reference viologen): −548 ± 7 mV
